Laboratory results published in ChEMBL document CHEMBL4665709, “Rational Avoidance of Protease Cleavage Sites and Symmetrical End-Tagging Significantly Enhances the Stability and Therapeutic Potential of Antimicrobial Peptides” (J Med Chem, 2020).
Converted amounts (≈) assume the structure as drawn. Where a SMILES comes first, the peptide text is derived from it.

Assays:
[1] = Cytotoxicity against mouse RAW264.7 cells assessed as cell viability at 128 uM by MTT assay relative to control; format: cell-based; details: read-out: Activity
Escherichia coli [2] = test: Antibacterial activity against Escherichia coli ATCC 25922 after 18 to 24 hrs by CLSI-based broth microdilution method; format: functional; details: time hrs 18-24
Streptococcus agalactiae = test: Antibacterial activity against Streptococcus agalactiae H92 after 18 to 24 hrs by CLSI-based broth microdilution method; format: functional; details: time hrs 18-24
[3] = Cytotoxicity against HEK-293T cells assessed as cell viability at 128 uM by MTT assay relative to control; format: cell-based; details: human, read-out: Activity
Enterococcus faecalis = test: Antibacterial activity against Enterococcus faecalis ATCC 29212 after 18 to 24 hrs by CLSI-based broth microdilution method; format: functional; details: time hrs 18-24
Salmonella typhimurium [4] = test: Antibacterial activity against Salmonella typhimurium 7731 after 18 to 24 hrs by CLSI-based broth microdilution method; format: functional, Salmonella enterica subsp. enterica serovar Typhimurium; details: Salmonella enterica, time hrs 18-24
[5] = Therapeutic index, ratio of MHC for human RBC to geometric mean of peptide MIC for Staphylococcus aureus ATCC 29213; format: toxicity; details: human red blood cells (RBC), read-out: TI
Staphylococcus aureus [6] = test: Antibacterial activity against Staphylococcus aureus ATCC 29213 after 18 to 24 hrs by CLSI-based broth microdilution method; format: functional; details: time hrs 18-24
[7] = Therapeutic index, ratio of MHC for human RBC to geometric mean of peptide MIC for Salmonella choleraesuis 503; format: toxicity; details: human red blood cells (RBC), read-out: TI
Escherichia coli [8] = test: Antibacterial activity against Escherichia coli UB1005 after 18 to 24 hrs by CLSI-based broth microdilution method; format: functional; details: time hrs 18-24
Salmonella enterica = test: Antibacterial activity against Salmonella choleraesuis 503 after 18 to 24 hrs by CLSI-based broth microdilution method; format: functional; details: time hrs 18-24
[9] = Therapeutic index, ratio of MHC for human RBC to geometric mean of peptide MIC for Escherichia coli UB1005; format: toxicity; details: human red blood cells (RBC), read-out: TI
[10] = Antibacterial activity against Salmonella pullorum 7913 after 18 to 24 hrs by CLSI-based broth microdilution method; format: functional, Salmonella enterica subsp. enterica serovar Pullorum; details: Salmonella enterica, time hrs 18-24
[11] = Therapeutic index, ratio of MHC for human RBC to geometric mean of peptide MIC for Staphylococcus aureus 11011; format: toxicity; details: human red blood cells (RBC), read-out: TI
[12] = Therapeutic index, ratio of MHC for human RBC to geometric mean of peptide MIC for Salmonella typhimurium 14028; format: toxicity; details: human red blood cells (RBC), read-out: TI
[13] = Therapeutic index, ratio of MHC for human RBC to geometric mean of peptide MIC for Enterococcus faecalis ATCC 29212; format: toxicity; details: human red blood cells (RBC), read-out: TI
Staphylococcus aureus [14] = test: Antibacterial activity against methicillin-resistant Staphylococcus aureus 43300 after 18 to 24 hrs by CLSI-based broth microdilution method; format: functional; details: time hrs 18-24
Salmonella typhimurium [15] = test: Antibacterial activity against Salmonella typhimurium 14028 after 18 to 24 hrs by CLSI-based broth microdilution method; format: functional, Salmonella enterica subsp. enterica serovar Typhimurium; details: Salmonella enterica, time hrs 18-24
Staphylococcus aureus [16] = test: Antibacterial activity against Staphylococcus aureus 11011 after 18 to 24 hrs by CLSI-based broth microdilution method; format: functional; details: time hrs 18-24
[17] = Therapeutic index, ratio of MHC for human RBC to geometric mean of peptide MIC for Streptococcus agalactiae H92; format: toxicity; details: human red blood cells (RBC), read-out: TI
[18] = Hemolytic activity in human RBC assessed as hemolysis at 1 to 128 uM relative to control; format: ADME, cell-based, Erythrocyte; details: human red blood cells (RBC), dose 1-128 µM, read-out: Activity
[19] = Therapeutic index, ratio of MHC for human RBC to geometric mean of peptide MIC for methicillin-resistant Staphylococcus aureus 43300; format: toxicity; details: human red blood cells (RBC), read-out: TI
[20] = Therapeutic index, ratio of MHC for human RBC to geometric mean of peptide MIC for Salmonella pullorum 7913; format: toxicity; details: human red blood cells (RBC), read-out: TI
[21] = Therapeutic index, ratio of MHC for human RBC to geometric mean of peptide MIC for Staphylococcus epidermidis ATCC 12228; format: toxicity; details: human red blood cells (RBC), read-out: TI
[22] = Therapeutic index, ratio of MHC for human RBC to geometric mean of peptide MIC for Escherichia coli ATCC 25922; format: toxicity; details: human red blood cells (RBC), read-out: TI
[23] = test system: Staphylococcus epidermidis; test: Antibacterial activity against Staphylococcus epidermidis ATCC 12228 after 18 to 24 hrs by CLSI-based broth microdilution method; format: functional; details: time hrs 18-24
[24] = Therapeutic index, ratio of MHC for human RBC to geometric mean of peptide MIC for Salmonella typhimurium 7731; format: toxicity; details: human red blood cells (RBC), read-out: TI
Erythrocyte = test: Hemolytic activity in human RBC assessed as hemolysis; format: ADME, cell-based

Compound | viability at 128 µM [1] | MIC (Escherichia coli [2]) | MIC (Streptococcus agalactiae) | viability at 128 µM [3] | MIC (Enterococcus faecalis) | MIC (Salmonella typhimurium [4]) | selectivity ratio [5] | MIC (Staphylococcus aureus [6]) | selectivity ratio [7] | MIC (Escherichia coli [8]) | MIC (Salmonella enterica) | selectivity ratio [9] | MIC [10] | selectivity ratio [11] | selectivity ratio [12] | selectivity ratio [13] | MIC (Staphylococcus aureus [14]) | MIC (Salmonella typhimurium [15]) | MIC (Staphylococcus aureus [16]) | selectivity ratio [17] | other results
CC[C@H](C)[C@H](N)C(=O)N[C@@H](CS)C(=O)N[C@@H](CCCNC(=N)N)C(=O)N[C@@H](CCCCN)C(=O)N1CCC[C@H]1C(=O)N[C@H](C(=O)N[C@H](C(=O)N[C@@H](CS)C(=O)N[C@@H](CCCNC(=N)N)C(=O)N[C@@H](CCCCN)C(=O)N1CCC[C@H]1C(=O)N[C@H](C(=O)N[C@H](C(=O)N[C@@H](CS)C(=O)N[C@@H](CCCNC(=N)N)C(=O)N[C@@H](CCCCN)C(=O)N1CCC[C@H]1C(=O)N[C@H](C(=O)N[C@H](C(=O)N[C@@H](CS)C(=O)N[C@@H](CCCNC(=N)N)C(=O)N[C@@H](CCCCN)C(=O)N1CCC[C@H]1C(=O)N[C@H](C(=O)N[C@H](C(=O)N[C@@H](CS)C(=O)N[C@@H](CCCNC(=N)N)C(=O)N[C@@H](CCCCN)C(=O)N1CCC[C@H]1C(=O)N[C@H](C(N)=O)[C@@H](C)CC)[C@@H](C)CC)[C@@H](C)CC)[C@@H](C)CC)[C@@H](C)CC)[C@@H](C)CC)[C@@H](C)CC)[C@@H](C)CC)[C@@H](C)CC (H-ICRKPIICRKPIICRKPIICRKPIICRKPI-NH2) | > 90% | 4 µM (≈ 14.3 µg/mL) | > 64 µM | > 90% | > 64 µM | 4 µM (≈ 14.3 µg/mL) | 2 | > 64 µM | 28.5 | 2 µM (≈ 7.14 µg/mL) | 8 µM (≈ 28.6 µg/mL) | 28.5 | 8 µM (≈ 28.6 µg/mL) | 2 | 28.5 | 2 | > 64 µM | 4 µM (≈ 14.3 µg/mL) | > 64 µM | 2 | hemolysis at up to 128 µM [18]: < 5%; selectivity ratio [19]: 2; selectivity ratio [20]: 28.5; selectivity ratio [21]: 2; selectivity ratio [22]: 28.5; MIC [23]: > 64 µM; selectivity ratio [24]: 28.5; MHC (Erythrocyte): > 128 µM
CC[C@H](C)[C@H](N)C(=O)N[C@@H](CS)C(=O)N[C@@H](CCCNC(=N)N)C(=O)N[C@@H](CCCCN)C(=O)N1CCC[C@H]1C(=O)N[C@H](C(=O)N[C@H](C(=O)N[C@@H](CS)C(=O)N[C@@H](CCCNC(=N)N)C(=O)N[C@@H](CCCCN)C(=O)N1CCC[C@H]1C(=O)N[C@H](C(=O)N[C@H](C(=O)N[C@@H](CS)C(=O)N[C@@H](CCCNC(=N)N)C(=O)N[C@@H](CCCCN)C(=O)N1CCC[C@H]1C(=O)N[C@H](C(N)=O)[C@@H](C)CC)[C@@H](C)CC)[C@@H](C)CC)[C@@H](C)CC)[C@@H](C)CC (H-ICRKPIICRKPIICRKPI-NH2) | > 90% | 8 µM (≈ 17.2 µg/mL) | > 64 µM | > 90% | > 64 µM | 8 µM (≈ 17.2 µg/mL) | 2 | > 64 µM | 11.3 | 4 µM (≈ 8.6 µg/mL) | 16 µM (≈ 34.4 µg/mL) | 11.3 | 64 µM (≈ 138 µg/mL) | 2 | 11.3 | 2 | > 64 µM | 8 µM (≈ 17.2 µg/mL) | > 64 µM | 2 | hemolysis at up to 128 µM [18]: < 5%; selectivity ratio [19]: 2; selectivity ratio [20]: 11.3; selectivity ratio [21]: 2; selectivity ratio [22]: 11.3; MIC [23]: > 64 µM; selectivity ratio [24]: 11.3; MHC (Erythrocyte): > 128 µM
